According to publication PMC2119975 (The Journal of Cell Biology, 1994):

Tests used:
[1] = system: HT1080 human fibrosarcoma cells; experiment: Cell adhesion assay, HT1080 cells; type: cell-based; conditions: Fig. 7 B; coating and inhibitor 100 μM; EDTA 2 mM; cells preincubated
type II alveolar cells = experiment: Alveolar inhibition studies on gelled BMS; type: cell-based, rat; conditions: Fig. 6; cells preincubated with peptide, up to 700 μM; day five; n = 9

Row | Compound | Inhibition of HT1080 cell adhesion to SN-peptide [1] | Effect of tryptic peptides of SN-peptide on alveolar formation (type II alveolar cells)
1 | O=C(O)CN(CCN(CC(=O)O)CC(=O)O)CC(=O)O [EDTA] | inhibited | 
2 | FGNMGS |  | minimal
3 | WHSIYITR |  | partial
